Test results: patent US6593094B2, “Compositions to enhance the efficacy and safety of bio-pharmaceutical drugs” (priority 1992, dated 2003)

How the values were obtained:
beta-1-receptors = target: T1, beta-1-receptors (Rattus norvegicus, UniProt P18090); assay: in vivo cardiac response (dP/dt, LVP, HR) in anesthetized rat during infusion; details: i.v. infusion at varying rates
T1 construct: from tissue; host or cells: heart of anesthetized rat, in vivo (left ventricular pressure, dP/dt, heart rate)
T1 sequence (P18090 whole entry, the tested form may be a part): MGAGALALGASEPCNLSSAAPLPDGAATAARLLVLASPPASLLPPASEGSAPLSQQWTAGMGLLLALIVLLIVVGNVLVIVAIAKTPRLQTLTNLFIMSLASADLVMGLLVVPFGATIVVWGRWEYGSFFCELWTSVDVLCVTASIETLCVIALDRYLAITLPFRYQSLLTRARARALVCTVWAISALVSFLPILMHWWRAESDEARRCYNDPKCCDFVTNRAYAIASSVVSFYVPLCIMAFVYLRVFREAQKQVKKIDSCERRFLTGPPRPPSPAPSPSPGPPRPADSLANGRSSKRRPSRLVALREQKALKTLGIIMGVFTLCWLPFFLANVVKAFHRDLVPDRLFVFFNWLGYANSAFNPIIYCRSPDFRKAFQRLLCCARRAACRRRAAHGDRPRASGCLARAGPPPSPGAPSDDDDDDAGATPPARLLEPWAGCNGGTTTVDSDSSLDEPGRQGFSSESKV
Procedure: Following sedation, the neck of the rat was incised and a tracheotomy was performed, inserting a 14-gauge angiocatheter sheath into the trachea of the rat and securing it with a silk tie. The angiocatheter was connected through a small tube to a small animal respirator supplied with 1.0 liters of oxygen per minute and set to 95 breaths per minute.
The right carotid artery was next tied off, and after making a small incision, a Micro-Tip Millar pressure catheter was introduced down through the carotid artery, placing the end of the catheter into the left ventricular cavity of the rat's heart. Position of the catheter tip was determined by the waveform of the pressure reading-placement in the left ventricle was presumed when a diastolic pressure of zero mmHg and a reasonable systolic pressure (70 to 150 mmHg) was observed. […]
At this point for each rat, a baseline recording was obtained of the left ventricular pressure tracing. Segments of three to five seconds were recorded, and it was from these recorded tracings that the included figures of maximum left ventricular pressure (reported as LVP), maximum time-derivative of left ventricular pressure (dP/dT), and heart rate (HR) were later determined, by analysis with Sonometrics CardioSOFT data analysis software. […]
Again, at each rate, LVP was recorded for later analysis. […]

mice = details: i.v. in mice; cited from earlier work
β2 receptor = β2 receptor (Cavia porcellus, UniProt Q8K4Z4); details: calculated from a fit of the isoproterenol control curve
Sequence of β2 receptor (Q8K4Z4 whole entry): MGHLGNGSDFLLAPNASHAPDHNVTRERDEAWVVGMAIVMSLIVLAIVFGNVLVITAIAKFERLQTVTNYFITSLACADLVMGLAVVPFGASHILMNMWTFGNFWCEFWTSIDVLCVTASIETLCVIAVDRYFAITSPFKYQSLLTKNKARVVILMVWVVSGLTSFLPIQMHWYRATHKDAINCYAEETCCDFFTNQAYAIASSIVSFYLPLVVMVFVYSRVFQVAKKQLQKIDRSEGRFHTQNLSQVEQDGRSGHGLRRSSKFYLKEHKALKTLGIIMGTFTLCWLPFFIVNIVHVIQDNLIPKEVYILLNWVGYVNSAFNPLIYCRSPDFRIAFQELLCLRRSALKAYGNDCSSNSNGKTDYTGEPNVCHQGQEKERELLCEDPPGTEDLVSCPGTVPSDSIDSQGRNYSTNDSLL
Excerpt: It is noted that, in the relevant art, there exists a method for calculating drug efficacy by utilization of easily identifiable biophysical parameters. […] Specifically, the experimental data and the calculated values were compared.

CC(CCc1ccc(O)cc1)NCCc1ccc(O)c(O)c1 (stereo not shown) [dobutamine]
dP/dT response with increasing dosage (beta-1-receptors): at higher dosages the dP/dT again began to decrease (desensitization) | dP/dT response with increasing dosage (beta-1-receptors; listed as Dob): showed a decline in response | LD50 (mice): 73 mg/kg

CC(C)NCC(O)c1ccc(O)c(O)c1 (stereo not shown) [isoproterenol]
φ=(KDLKDH/2)^−½, value of the maximum of the control curve (β2 receptor): 7.48 µM
